From patent US8633315B2, “Substituted hydroxyethyl amine compounds as beta-secretase modulators and methods of use” (Amgen Inc., priority 2007, dated 2014)

Tests used:
BACE1 = BACE1 (Homo sapiens, UniProt P56817); assay: In vitro enzymatic BACE FRET (fluorescence resonance energy transfer) assay; format: biochemical
Outline: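 Fluorescence (ex 488 nm, […]) was read after Tris addition raised pH to neutral, ending a one-hour incubation. Reaction started with 50 nM fluorophore/quencher peptide substrate in pH 4.2 acetate (0.05 M) containing 100 uM genapol and 10% DMSO final.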

[1] = tested on: Cells stably expressing Amyloid Precursor Protein (APP); assay: In vitro BACE cell-based assay (HEK cell assay): Aβ40 in conditioned medium by sandwich ELISA; conditions: Homo sapiens, HEK293, 24 h, Aβ40 in conditioned medium after 24 h incubation
Experimental: In Vitro BACE Cell-Based Assay:
The cell-based assay measures inhibition or reduction of Aβ40 in conditioned medium of test compound treated cells expressing amyloid precursor protein.
Cells stably expressing Amyloid Precursor Protein (APP) were plated at a density of 40K cells/well in 96 well plates (Costar). The cells were cultivated for 24 hours at 37° C. and 5% CO2 in DMEM supplemented with 10% FBS. The test compounds were then added to cells in 10-point dose response concentrations with the starting concentration being either 100 μM or 10 μM. The compounds were diluted from stock solutions in DMSO and the final DMSO concentration of the test compounds on cells was 0.1%. After 24 h of incubation with the test compounds the supernatant conditioned media was collected and the Aβ 40 levels were determined using a sandwich ELISA. The IC50 of the compound was calculated from the percent of control or percent inhibition of Aβ 40 as a function of the concentration of the test compound.
The sandwich ELISA to detect Aβ 40 was performed in 96 well microtiter plates, which were pre-treated with goat anti-rabbit IgG (Pierce). The capture and detecting antibody pair that were used to detect Aβ 40 from cell supernatants were affinity purified pAb40 (Biosource) and biotinylated 6E10 (Signet Labs Inc.), respectively. The optimal concentration for the pAb40 antibody was 3 μg/ml in Superblock/TBS (Pierce) that was supplemented with 0.05% Tween 20 (Sigma). Optimal concentration for the detection antibody 6E10-biotinylated was 0.5 μg/ml in Superblock/TBS (Pierce) that had been supplemented with 2% normal goat serum and 2% normal mouse serum.
Cellular supernatants were incubated with the capture antibody for 3 h at 4° C., followed by 3 wash steps in TBS-tween (0.05%). The detecting antibody incubation was for 2 h at 4° C., again followed by the wash steps as described previously. The final readout of the ELISA is Time-Resolved Fluorescence (counts per minute) using Delfia reagents Streptavidin-Europium and Enhancement solutions (Perkin Elmer) and the Victor 2 multilabel counter (Perkin Elmer).
Of the compounds tested, in-the cell-based assay, data for each of Examples 33-156 is provided in Table 1 and Examples 208-246 are provided in Table 4.

Chain of BACE1 (P56817 46-501, species assumed): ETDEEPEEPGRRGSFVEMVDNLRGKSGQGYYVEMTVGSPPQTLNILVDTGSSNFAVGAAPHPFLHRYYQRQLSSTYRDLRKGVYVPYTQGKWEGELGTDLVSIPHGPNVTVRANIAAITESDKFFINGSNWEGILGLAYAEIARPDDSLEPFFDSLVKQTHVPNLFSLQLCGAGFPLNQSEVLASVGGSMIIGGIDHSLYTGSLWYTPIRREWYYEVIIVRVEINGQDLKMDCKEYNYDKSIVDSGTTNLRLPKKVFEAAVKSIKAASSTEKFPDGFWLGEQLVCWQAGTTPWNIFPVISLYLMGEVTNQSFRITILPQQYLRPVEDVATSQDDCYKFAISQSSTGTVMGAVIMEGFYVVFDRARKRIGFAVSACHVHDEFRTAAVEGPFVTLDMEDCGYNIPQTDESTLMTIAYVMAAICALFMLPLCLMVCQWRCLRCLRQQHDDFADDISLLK

Row | SMILES | IC50 (BACE1) [nM] | IC50 [1] [nM]
1 | C=CC[C@H](NC(=O)c1c(F)cccc1F)[C@H](O)CN[C@H]1CC2(CCC2)Oc2ncc(CC(C)(C)C)cc21 [Example 72, N-((1S)-1-((1R)-2-(((4′S)-6′-(2,2-dimethylpropyl)-3′,4′-dihydrospiro[cyclobutane-1,2′-pyrano[2,3-b]pyridin]-4′-yl)amino)-1-hydroxyethyl)-3-buten-1-yl)-2,6-difluorobenzamide] | 276 | 3570
2 | C=CC[C@H](NC(=O)c1ccc(F)c(F)c1F)[C@H](O)CN[C@H]1CC2(CCC2)Oc2ncc(CC(C)(C)C)cc21 [Example 73, N-((1S)-1-((1R)-2-(((4′S)-6′-(2,2-dimethylpropyl)-3′,4′-dihydrospiro[cyclobutane-1,2′-pyrano[2,3-b]pyridin]-4′-yl)amino)-1-hydroxyethyl)-3-buten-1-yl)-2,3,4-trifluorobenzamide] | 483 | 2650
3 | C=CC[C@H](NC(=O)c1cc(F)cc(F)c1F)[C@H](O)CN[C@H]1CC2(CCC2)Oc2ncc(CC(C)(C)C)cc21 [Example 74, N-((1S)-1-((1R)-2-(((4′S)-6′-(2,2-dimethylpropyl)-3′,4′-dihydrospiro[cyclobutane-1,2′-pyrano[2,3-b]pyridin]-4′-yl)amino)-1-hydroxyethyl)-3-buten-1-yl)-2,3,5-trifluorobenzamide] | 305 | 1620
4 | C=CC[C@H](NC(=O)c1c(F)ccc(F)c1F)[C@H](O)CN[C@H]1CC2(CCC2)Oc2ncc(CC(C)(C)C)cc21 [Example 75, N-((1S)-1-((1R)-2-(((4′S)-6′-(2,2-dimethylpropyl)-3′,4′-dihydrospiro[cyclobutane-1,2′-pyrano[2,3-b]pyridin]-4′-yl)amino)-1-hydroxyethyl)-3-buten-1-yl)-2,3,6-trifluorobenzamide] | 253 | 366
5 | C=CC[C@H](NC(=O)c1cnccc1OC)[C@H](O)CN[C@H]1CC2(CCC2)Oc2ncc(CC(C)(C)C)cc21 [Example 76, N-((1S)-1-((1R)-2-(((4′S)-6′-(2,2-dimethylpropyl)-3′,4′-dihydrospiro[cyclobutane-1,2′-pyrano[2,3-b]pyridin]-4′-yl)amino)-1-hydroxyethyl)-3-buten-1-yl)-4-(methyloxy)-3-pyridinecarboxamide] | 675 | 802
6 | C=CC[C@H](NC(=O)c1cc(F)c(F)cc1F)[C@H](O)CN[C@H]1CC2(CCC2)Oc2ncc(CC(C)(C)C)cc21 [Example 77, N-((1S)-1-((1R)-2-(((4′S)-6′-(2,2-dimethylpropyl)-3′,4′-dihydrospiro[cyclobutane-1,2′-pyrano[2,3-b]pyridin]-4′-yl)amino)-1-hydroxyethyl)-3-buten-1-yl)-2,4,5-trifluorobenzamide] | 440 | 3310
7 | C=CC[C@H](NC(=O)c1c(F)cc(F)cc1F)[C@H](O)CN[C@H]1CC2(CCC2)Oc2ncc(CC(C)(C)C)cc21 [Example 78, N-((1S)-1-((1R)-2-(((4′S)-6′-(2,2-dimethylpropyl)-3′,4′-dihydrospiro[cyclobutane-1,2′-pyrano[2,3-b]pyridin]-4′-yl)amino)-1-hydroxyethyl)-3-buten-1-yl)-2,4,6-trifluorobenzamide] | 641 | 3000
8 | C=CC[C@H](NC(=O)c1cc(F)c(F)c(F)c1)[C@H](O)CN[C@H]1CC2(CCC2)Oc2ncc(CC(C)(C)C)cc21 [Example 79, N-((1S)-1-((1R)-2-(((4′S)-6′-(2,2-dimethylpropyl)-3′,4′-dihydrospiro[cyclobutane-1,2′-pyrano[2,3-b]pyridin]-4′-yl)amino)-1-hydroxyethyl)-3-buten-1-yl)-3,4,5-trifluorobenzamide] | 465 | 1970
9 | C=CC[C@H](NC(=O)COC)[C@H](O)CN[C@H]1CC2(CCC2)Oc2ncc(CC(C)(C)CF)cc21 [Example 80, N-((1S)-1-((1R)-2-(((4′S)-6′-(3-fluoro-2,2-dimethylpropyl)-3′,4′-dihydrospiro[cyclobutane-1,2′-pyrano[2,3-b]pyridin]-4′-yl)amino)-1-hydroxyethyl)-3-buten-1-yl)-2-(methyloxy)acetamide] | 84 | 249
10 | CC#CC[C@H](NC(C)=O)[C@H](O)CN[C@H]1CC2(CCC2)Oc2ncc(CC(C)(C)C)cc21 [Example 86, N-((1S)-1-((1R)-2-(((4′S)-6′-(2,2-dimethylpropyl)-3′,4′-dihydrospiro[cyclobutane-1,2′-pyrano[2,3-b]pyridin]-4′-yl)amino)-1-hydroxyethyl)-3-pentyn-1-yl)acetamide] | 69 | 104
11 | C=CC[C@H](NC(=O)C(F)(F)F)[C@H](O)CN[C@H]1CC2(CCC2)Oc2ncc(CC(C)(C)C)cc21 [Example 94, N-((1S)-1-((1R)-2-(((4′S)-6′-(2,2-dimethylpropyl)-3′,4′-dihydrospiro[cyclobutane-1,2′-pyrano[2,3-b]pyridin]-4′-yl)amino)-1-hydroxyethyl)-3-buten-1-yl)-2,2,2-trifluoroacetamide] | 73 | 154
12 | C=CC[C@H](NC(=O)[C@H](C)OC)[C@H](O)CN[C@H]1CC2(CCC2)Oc2ncc(CC(C)(C)C)cc21 [Example 95, (2S)-N-((1S)-1-((1R)-2-(((4′S)-6′-(2,2-dimethylpropyl)-3′,4′-dihydrospiro[cyclobutane-1,2′-pyrano[2,3-b]pyridin]-4′-yl)amino)-1-hydroxyethyl)-3-buten-1-yl)-2-(methyloxy)propanamide] | 145 | 637
13 | C=CC[C@H](NC(=O)c1cnccn1)[C@H](O)CN[C@H]1CC2(CCC2)Oc2ncc(CC(C)(C)C)cc21 [Example 98, N-((1S)-1-((1R)-2-(((4′S)-6′-(2,2-dimethylpropyl)-3′,4′-dihydrospiro[cyclobutane-1,2′-pyrano[2,3-b]pyridin]-4′-yl)amino)-1-hydroxyethyl)-3-buten-1-yl)-2-pyrazinecarboxamide] | 741 | 1680

Other lines, results leading:

Row | IC50 (BACE1) [nM] | IC50 [1] [nM] | SMILES
14 | 69 | 216 | C=CC[C@H](NC(=O)COC)[C@H](O)CN[C@H]1CC2(CCC2)Oc2ncc([C@H](F)C(C)(C)C)cc21 [Example 82, N-((1S)-1-((1R)-2-(((4′S)-6′-((1R)-1-fluoro-2,2-dimethylpropyl)-3′,4′-dihydrospiro[cyclobutane-1,2′-pyrano[2,3-b]pyridin]-4′-yl)amino)-1-hydroxyethyl)-3-buten-1-yl)-2-(methyloxy)acetamide]
15 | 11 | 18 | CC(=O)N[C@@H](CC=C1CCC1)[C@H](O)CN[C@H]1CC2(CCC2)Oc2ncc(CC(C)(C)C)cc21 [Example 83, N-((1S,2R)-1-(2-cyclobutylideneethyl)-3-(((4′S)-6′-(2,2-dimethylpropyl)-3′,4′-dihydrospiro[cyclobutane-1,2′-pyrano[2,3-b]pyridin]-4′-yl)amino)-2-hydroxypropyl)acetamide]
16 | 40 | 222 | C#CC[C@H](NC(C)=O)[C@H](O)CN[C@H]1CC2(CCC2)Oc2ncc(CC(C)(C)C)cc21 [Example 84, N-((1S)-1-((1R)-2-(((4′S)-6′-(2,2-dimethylpropyl)-3′,4′-dihydrospiro[cyclobutane-1,2′-pyrano[2,3-b]pyridin]-4′-yl)amino)-1-hydroxyethyl)-3-butyn-1-yl)acetamide]
17 | 49 | 511 | C#CC[C@H](NC(=O)COC)[C@H](O)CN[C@H]1CC2(CCC2)Oc2ncc(CC(C)(C)C)cc21 [Example 85, N-((1S)-1-((1R)-2-(((4′S)-6′-(2,2-dimethylpropyl)-3′,4′-dihydrospiro[cyclobutane-1,2′-pyrano[2,3-b]pyridin]-4′-yl)amino)-1-hydroxyethyl)-3-butyn-1-yl)-2-(methyloxy)acetamide]
18 | 68 | 135 | C=CC[C@H](NC(=O)c1cccnc1)[C@H](O)CN[C@H]1CC2(CCC2)Oc2ncc(CC(C)(C)C)cc21 [Example 96, N-((1S)-1-((1R)-2-(((4′S)-6′-(2,2-dimethylpropyl)-3′,4′-dihydrospiro[cyclobutane-1,2′-pyrano[2,3-b]pyridin]-4′-yl)amino)-1-hydroxyethyl)-3-buten-1-yl)-3-pyridinecarboxamide]
19 | 61 | 201 | C=CC[C@H](NC(=O)c1cncs1)[C@H](O)CN[C@H]1CC2(CCC2)Oc2ncc(CC(C)(C)C)cc21 [Example 97, N-((1S)-1-((1R)-2-(((4′S)-6′-(2,2-dimethylpropyl)-3′,4′-dihydrospiro[cyclobutane-1,2′-pyrano[2,3-b]pyridin]-4′-yl)amino)-1-hydroxyethyl)-3-buten-1-yl)-1,3-thiazole-5-carboxamide]
